Measurements from patent publication US7968526B2, “Antisense oligonucleotides directed to ribonucleotide reductase R2 and uses thereof in the treatment of cancer” (Lorus Therapeutics Inc., priority 2003, dated 2011).

Tests used:
[1] = Tissue distribution in the monkey (CE method); assay type: in vivo
Protocol: The toxicokinetics and tissue distribution of SEQ ID NO:1 (and related oligonucleotide metabolites obtained from exonuclease-mediated chain shortening) were determined in rats and monkeys. In addition to investigating the pharmacokinetics and tissue distribution of SEQ ID NO:1, the purpose of the studies was to correlate adverse effects in the animal studies to the concentrations of SEQ ID NO:1 (and metabolites) in tissue and blood. A capillary electrophoresis (CE) method was used to measure the concentrations of SEQ ID NO:1 (and metabolites) in plasma and tissues.
The concentrations of SEQ ID NO:1 (and related n+1, n−1 to n−15 oligonucleotide metabolites) in the following rat and monkey tissues were measured by a validated CE method (Southwest Bio-Labs, Inc.): kidney, liver, spleen, heart, lung, bone marrow (rat), lymph nodes (monkey) and brain tissues. The tissue samples were collected from the designated animals as described in the 21-day toxicity studies: rats, administered bolus intravenous injections of SEQ ID NO:1 every other day at 2, 10, or 50 mg/kg; and monkeys administered SEQ ID NO:1 by continuous intravenous infusion at 2, 10, or 50 mg/kg/day.

[2] = tested on: CB7 Friend retrovirus-induced mouse Erythroleukaemia cells; test: Survival of SCID mice bearing mouse erythroleukaemia (CB7); assay type: in vivo; settings: 10 mg/kg i.v. every second day, stopped at day 71, untreated all died within 36 days
[3] = tested on: Caki-1 human kidney cancer cells; test: Caki-1 kidney tumour growth in CD-1 nude mice (3.8); assay type: in vivo, human cells in mice
Protocol: Treatments lasted for 14 days thereafter. Antitumour activities were estimated by the inhibition of tumour volume, which was measured with a caliper on four different occasions over the treatment period. Each point represents mean tumour volume calculated from 5 animals per experimental group. […] Control animals (control) received saline alone for the same period. At the end of the treatments, the animals were sacrificed, tumours were excised and their weights were measured. Each bar represents mean tumour weight calculated from 6 animals per experimental group. […] Treatments lasted for 24 days thereafter. Antitumour activities were estimated by the inhibition of tumour volume, which was measured with a caliper at two-day intervals over the treatment period. Each point represents mean tumour volume calculated from 4 animals per experimental group. […] Treatments lasted for 24 days thereafter. Antitumour activities were estimated by the inhibition of tumour volume, which was measured with a caliper at two-day intervals over the treatment period. Each point represents mean tumour volume calculated from 4 animals per experimental group. […] Each point represents mean tumour volume calculated from 5 animals per experimental group. […] Antitumour activities were estimated by the inhibition of tumour volume, which was measured with a caliper on four different occasions over 16-day period. […]

[4] = Acute intravenous toxicity study in the monkey; assay type: in vivo; settings: rhesus monkeys
Protocol: Intravenous infusion of SEQ ID NO:1 for 24 hours at doses up to 80 mg/kg/day (984 mg/m^2/day) was well-tolerated by rhesus monkeys. […] These effects indicate an apparent inhibition of the intrinsic coagulation pathway, and modest activation of the alternative complement pathway, respectively. These treatment-related changes were typical class effects of phosphorothioate oligonucleotide administration.

[5] = tested on: SK-OV-3 human ovarian cancer cells; test: SK-OV-3 ovary tumour growth in Balb/c nude mice (3.4); assay type: in vivo, human cells in mice
Protocol: Treatments lasted for 14 days thereafter. Antitumour activities were estimated by the inhibition of tumour volume, which was measured with a caliper on four different occasions over the treatment period. Each point represents mean tumour volume calculated from 5 animals per experimental group. […] Control animals (control) received saline alone for the same period. At the end of the treatments, the animals were sacrificed, tumours were excised and their weights were measured. Each bar represents mean tumour weight calculated from 6 animals per experimental group. […] Treatments lasted for 24 days thereafter. Antitumour activities were estimated by the inhibition of tumour volume, which was measured with a caliper at two-day intervals over the treatment period. Each point represents mean tumour volume calculated from 4 animals per experimental group. […] Treatments lasted for 24 days thereafter. Antitumour activities were estimated by the inhibition of tumour volume, which was measured with a caliper at two-day intervals over the treatment period. Each point represents mean tumour volume calculated from 4 animals per experimental group. […] Each point represents mean tumour volume calculated from 5 animals per experimental group. […] Antitumour activities were estimated by the inhibition of tumour volume, which was measured with a caliper on four different occasions over 16-day period. Each point represents mean tumour volume calculated from 5 animals per experimental group. […] Antitumour activities were estimated by the inhibition of tumour volume, which was measured with a caliper at two-day intervals over the treatment period. Each point represents mean tumour volume calculated from 5 animals per experimental group. […] Antitumour activities were estimated by the inhibition of tumour volume, which was measured with a caliper at various time intervals over the span of 30 days. Each point represents mean tumour volume calculated from 6 animals per experimental group. […] Antitumour activities were estimated by the inhibition of tumour volume, which was measured with a caliper. […]

[6] = 2 mg/kg/day continuous i.v. infusion, Necropsy Day 22
[7] = 10 mg/kg/day continuous i.v. infusion, Necropsy Day 22
[8] = 50 mg/kg/day continuous i.v. infusion, Necropsy Day 22
[9] = 50 mg/kg/day continuous i.v. infusion, Necropsy Day 43

## 5′-GGCTAAATCGCTCCACCAAG-3′ (all phosphorothioate, sugars by position and methylation of C not given here) [SEQ ID NO: 1, fully phosphorothioated antisense oligonucleotide that hybridizes to the coding region of R2 mRNA]
[1]
  Rank order of tissue concentrations: kidney>liver>bone marrow>spleen>heart>lung
[1]; [6]
  Mean Concentration SEQ ID NO: 1, Brain: BDL (below detectable limits (1 μg/g rat; 0.2 μg/g monkey))
  Mean Concentration SEQ ID NO: 1, Heart: BDL (below detectable limits (1 μg/g rat; 0.2 μg/g monkey))
  Mean Concentration SEQ ID NO: 1, Kidney: 176.2 µg/g
  Mean Concentration SEQ ID NO: 1, Liver: 137.8 µg/g
  Mean Concentration SEQ ID NO: 1, Lung: BDL (below detectable limits (1 μg/g rat; 0.2 μg/g monkey))
  Mean Concentration SEQ ID NO: 1, Lymph node: 2.2 µg/g
  Mean Concentration SEQ ID NO: 1, Spleen: 17.8 µg/g
  Mean Concentration total metabolites (n + 1 through n − 13), Brain: BDL (below detectable limits (1 μg/g rat; 0.2 μg/g monkey))
  Mean Concentration total metabolites (n + 1 through n − 13), Heart: BDL (below detectable limits (1 μg/g rat; 0.2 μg/g monkey))
  Mean Concentration total metabolites (n + 1 through n − 13), Kidney: 605.8 µg/g
  Mean Concentration total metabolites (n + 1 through n − 13), Liver: 425.7 µg/g
  Mean Concentration total metabolites (n + 1 through n − 13), Lung: BDL (below detectable limits (1 μg/g rat; 0.2 μg/g monkey))
  Mean Concentration total metabolites (n + 1 through n − 13), Lymph node: 21.0 µg/g
  Mean Concentration total metabolites (n + 1 through n − 13), Spleen: 71.4 µg/g
[1]; [7]
  Mean Concentration SEQ ID NO: 1, Brain: BDL (below detectable limits (1 μg/g rat; 0.2 μg/g monkey))
  Mean Concentration SEQ ID NO: 1, Heart: 1.9 µg/g
  Mean Concentration SEQ ID NO: 1, Kidney: 246.5 µg/g
  Mean Concentration SEQ ID NO: 1, Liver: 129.0 µg/g
  Mean Concentration SEQ ID NO: 1, Lung: 1.6 µg/g
  Mean Concentration SEQ ID NO: 1, Lymph node: 13.1 µg/g
  Mean Concentration SEQ ID NO: 1, Spleen: 82.1 µg/g
  Mean Concentration total metabolites (n + 1 through n − 13), Brain: BDL (below detectable limits (1 μg/g rat; 0.2 μg/g monkey))
  Mean Concentration total metabolites (n + 1 through n − 13), Heart: 4.6 µg/g
  Mean Concentration total metabolites (n + 1 through n − 13), Kidney: 886.1 µg/g
  Mean Concentration total metabolites (n + 1 through n − 13), Liver: 486.2 µg/g
  Mean Concentration total metabolites (n + 1 through n − 13), Lung: 4.2 µg/g
  Mean Concentration total metabolites (n + 1 through n − 13), Lymph node: 86.2 µg/g
  Mean Concentration total metabolites (n + 1 through n − 13), Spleen: 198.3 µg/g
[1]; [8]
  Mean Concentration SEQ ID NO: 1, Brain: BDL (below detectable limits (1 μg/g rat; 0.2 μg/g monkey))
  Mean Concentration SEQ ID NO: 1, Heart: 46.3 µg/g
  Mean Concentration SEQ ID NO: 1, Kidney: 1425.2 µg/g
  Mean Concentration SEQ ID NO: 1, Liver: 316.6 µg/g
  Mean Concentration SEQ ID NO: 1, Lung: 39.2 µg/g
  Mean Concentration SEQ ID NO: 1, Lymph node: 253.5 µg/g
  Mean Concentration SEQ ID NO: 1, Spleen: 260.6 µg/g
  Mean Concentration total metabolites (n + 1 through n − 13), Brain: BDL (below detectable limits (1 μg/g rat; 0.2 μg/g monkey))
  Mean Concentration total metabolites (n + 1 through n − 13), Heart: 113.8 µg/g
  Mean Concentration total metabolites (n + 1 through n − 13), Kidney: 3230.8 µg/g
  Mean Concentration total metabolites (n + 1 through n − 13), Liver: 806.6 µg/g
  Mean Concentration total metabolites (n + 1 through n − 13), Lung: 124.0 µg/g
  Mean Concentration total metabolites (n + 1 through n − 13), Lymph node: 801.2 µg/g
  Mean Concentration total metabolites (n + 1 through n − 13), Spleen: 1097 µg/g
[1]; [9]
  Mean Concentration SEQ ID NO: 1, Brain: BDL (below detectable limits (1 μg/g rat; 0.2 μg/g monkey))
  Mean Concentration SEQ ID NO: 1, Heart: 0.5 µg/g
  Mean Concentration SEQ ID NO: 1, Kidney: 1.6 µg/g
  Mean Concentration SEQ ID NO: 1, Liver: 0.9 µg/g
  Mean Concentration SEQ ID NO: 1, Lung: BDL (below detectable limits (1 μg/g rat; 0.2 μg/g monkey))
  Mean Concentration SEQ ID NO: 1, Lymph node: 59.9 µg/g
  Mean Concentration SEQ ID NO: 1, Spleen: 57.2 µg/g
  Mean Concentration total metabolites (n + 1 through n − 13), Brain: BDL (below detectable limits (1 μg/g rat; 0.2 μg/g monkey))
  Mean Concentration total metabolites (n + 1 through n − 13), Heart: 3.5 µg/g
  Mean Concentration total metabolites (n + 1 through n − 13), Kidney: 10.5 µg/g
  Mean Concentration total metabolites (n + 1 through n − 13), Liver: 2.3 µg/g
  Mean Concentration total metabolites (n + 1 through n − 13), Lung: BDL (below detectable limits (1 μg/g rat; 0.2 μg/g monkey))
  Mean Concentration total metabolites (n + 1 through n − 13), Lymph node: 371.3 µg/g
  Mean Concentration total metabolites (n + 1 through n − 13), Spleen: 367.8 µg/g
[1]; lower limit for detection 0.2 μg/g
  Concentrations in the brain: below the limits of detection
[2]
  Survival of mice: survived beyond day 71 except one mouse, which died at day 22
[3]; Caki-1, CD-1 nude mice, 10 mg/kg i.v. every other day to day 36
  Inhibitory effect on tumour growth (tumour volume, FIG. 21A): powerful inhibitory effects on the growth of human renal carcinoma cells, resulting in total regression of the tumours in three mice
[3]; Human Renal Carcinoma (first entry of Table 5)
  Inhibition of tumour size: Approximately 90% inhibition of tumour size
[4]; 24 hour i.v. infusion, any dose
  Clinical signs, body weight, blood pressure, heart rate, serum biochemistry, haematology: No treatment-related clinical signs or changes in body weight, blood pressure, heart rate, serum biochemistry or haematology parameters
[4]; 24 hour i.v. infusion, doses up to 80 mg/kg/day
  Deaths: no deaths during the study
[4]; end of infusion at 20, 40, and 80 mg/kg/day
  Complement split product Bb: slight treatment-related increases in complement split product Bb
[4]; end of infusion at 40 and 80 mg/kg/day
  APTT: Mild treatment-related changes in APTT
[4]; intravenous infusion for 24 hours at doses up to 80 mg/kg/day (984 mg/m^2/day)
  Tolerability: well-tolerated
[5]; Human Ovary Adenocarcinoma
  Inhibition of tumour weight: tumour weight of approximately 50%
[5]; Human Ovary Adenocarcinoma in Balb/c Nu-Nu mice, Days 19 to 25 after tumour implantation
  Inhibition of tumour size: Inhibition of tumour size by approximately 35%
[5]; SK-OV-3, Balb/c nude mice, 10 mg/kg i.v. every other day, 22 days
  Inhibitory effect on tumour growth (tumour volume, FIG. 18C): statistically significant inhibitory effects on the growth of human ovary adenocarcinoma cells
